In patent publication US9382230B2, “Methods and compositions for modulating Ire1, SRC and ABL activity” (The Regents of the University of California, priority 2008, dated 2016):

Tests used:
yIre1 = target: T1, yIre1 (Saccharomyces cerevisiae, UniProt P32361); test: RNA cleavage-based yIre1 activation assay; format: biochemical, yeast; set-up: unit not given here; conditions: 3 μM yIre1, stem loop RNA, 15 μM effector
T1 construct: GST (N); made in house; host or cells: E. coli BL21 CodonPlus (RIPL)
T1 sequence (P32361 with tags, fused parts or gaps limits assumed): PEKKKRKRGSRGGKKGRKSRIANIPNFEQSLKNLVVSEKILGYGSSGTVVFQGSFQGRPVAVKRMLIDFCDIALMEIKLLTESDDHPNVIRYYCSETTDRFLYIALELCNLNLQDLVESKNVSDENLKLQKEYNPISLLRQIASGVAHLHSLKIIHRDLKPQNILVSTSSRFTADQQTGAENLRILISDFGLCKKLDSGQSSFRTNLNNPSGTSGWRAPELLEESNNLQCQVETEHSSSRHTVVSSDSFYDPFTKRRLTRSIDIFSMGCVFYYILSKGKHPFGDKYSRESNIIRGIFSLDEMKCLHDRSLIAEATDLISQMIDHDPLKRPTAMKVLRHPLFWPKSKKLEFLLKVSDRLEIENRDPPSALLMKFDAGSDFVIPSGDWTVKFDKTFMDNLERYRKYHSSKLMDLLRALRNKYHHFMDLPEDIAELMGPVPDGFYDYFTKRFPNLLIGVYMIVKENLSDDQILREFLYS
Procedure: The RNase Cleavage Assay.
(§1) RNA cleavage reactions were conducted at 30° C. in buffer containing 20 mM HEPES (pH 7.5), 70 mM NaCl, 2 mM ADP (pH 7.0), 2 mM Mg(OAc)2, 5 mM DTT, 5% glycerol, less than 1 nM ^32p-labeled RNA substrate, and 3 nM-20 μM Ire1. Reaction solutions and buffers were designed using Biochem Lab Solutions 3.5. Reactions were prepared such that 1 μl of RNA was added to 9 μl of pre-warmed reaction mixture containing all components except RNA. Typically, 3-10 minute time courses were collected starting from 5 seconds for the first time point. At time intervals, 1 μl of solution was withdrawn from each reaction and mixed wish 6 μl stop solution containing 10 M urea, 0.1% SDS, 0.1 mM EDTA, 0.05% xylene cyanol, and 0.05% bromophenol blue. The samples were separated by a denaturing 10% PAGE and exposed on a phosphor storage screen. The screens were scanned on a Storm or a Typhoon instrument and quantified using ImageQuant 5.0 or GelQuant.NET 1.4 programs. The data were plotted and fit in SigmaPlot 6.0.
RNA cleavage can be used to assess yIre1 activation as shown by FIG. 20 and the table below (3 μM yIre1, stem loop RNA, 15 μM effector): […]

[1] = tested on: Xbp-1 mRNA splicing (UPR activation through Ire1) in HEK293 cells; test: XBP-1 mRNA splicing by RT-PCR in HEK293 cells (UPR); format: cell-based, mammalian; conditions: for % splicing mRNA XBP-I Average: Hek293 cells treated for 4 hrs, RT-PCR; for in vivo activation of Ire1: summary statement
Procedure: The effect of tunicamycin, SU11248, DJM2005, APY24, and APY29 on Ire1 activity was tested in mammalian cells using HEK293 cells as a model system. Cells were treated according to the methods described in Lin J H et al., Science 318:944 (2007). After treatment with the corresponding agents for the indicated time, Xbp-1 mRNA splicing was determined by RT-PCR. Unspliced (u) and spliced (s) Xbp1-mRNA products are indicated and serve as a measure of UPR activation through Ire1.
Exemplary compounds were assayed for their effect on UPR. Results are set forth in FIGS. 18-19 and in the table below.

Ire1 = test: Summary statement of Ire1 activation or inhibition (assay not specified)
[2] = tested on: XBP1-GFP reporter in Hek293-FT cells; test: FACS on Hek293-FT cells transfected with XBP1-GFP reporter; format: cell-based; conditions: treated for 24 hrs
Procedure: Exemplary compounds were assayed and the results are set froth in the table below.

Ire1KR32 = target: T2, Ire1KR32 (Saccharomyces cerevisiae, UniProt P32361); test: RNase cleavage assay with Ire1 cytosolic constructs (Ire1KR32), co-factors and kinase inhibitors; format: biochemical
T2 construct: Overview of the Ire1 constructs; GST (N); made in house; host or cells: E. coli BL21 CodonPlus (RIPL)
T2 sequence (P32361 with tags, fused parts or gaps): T1 sequence (P32361 with tags, fused parts or gaps limits assumed)
Procedure: as §1
Variants of the cytosolic portion of Ire1 that contain the kinase and the RNase domains (Ire1KR) and Ire1KR extended by 24 (Ire1KR24) or 32 (Ire1KR32) amino acids towards the N-terminus (FIG. 1A, FIG. 1C, FIG. 7) were prepared. These additional amino acid extensions are part of a ˜100 amino acid-long linker domain that tethers the kinase/RNase domains to the transmembrane domain. All three constructs cleaved site-specifically 5′-32p-labeled stem-loop oligoribonucleotides 14 derived from the XBP1 mRNA (FIG. 1B, FIG. 8). […] No ADP.Mg co-factor was required for the cooperative activation of the RNase.
Ire1KR32 was co-crystallized with inhibitors that were designed to target CDK2 and EGFR kinases. Certain kinase inhibitors fully activated the RNase function of Ire1 (FIG. 3A). This is the first example of wild-type Ire1 activation by synthetic compounds.
Crystals obtained with the inhibitor APY29 allowed the structure determination of the Ire1KR32-APY29 complex at 3.9 Å resolution. A well-resolved density for the inhibitor molecule was found in the ATP binding pocket of the Ire1 kinase domain (FIG. 3B). APY29 forms an extensive hydrogen-bonding network with the protein backbone formed by E746, L747, and C748 (FIG. 3C). Hydrogen bonds are likely to also form with two side chains at the active site, N751, and D828. […] Manual fitting of sunitinib guided by know structures of kinase.inhibitor complexes (e.g., PDB IDs 2G9X and 2F4J) predicts that the compound fills the nucleobase site, but not the sugar and the phosphate sub-sites. […] AIN54 could not be readily fit to the ATP pocket due to steric clashes arising partly because of the unusual position of beta strand β1 that covers the nucleotide-binding pocket of the Ire1 kinase.
This structural difference provides an excellent tool to test the role of magnesium in the RNase activity of Ire1. Accordingly, the effect of EDTA on the RNase activity of Ire1KR32 was examined.

Row | Compound | RNA cleavage (yIre1 activation) (yIre1) | % splicing mRNA XBP-I Average ([1]; Tm 0.3 ug/ml + compound 2 μM) [%] | % splicing mRNA XBP-I Average ([1]; compound 2 μM) [%] | % splicing mRNA XBP-I Average ([1]; compound 10 μM) [%] | in vivo activation of Ire1 [1] | activation of Ire1 (Ire1) | inhibition of Ire1 (Ire1) | % fold induction to Control ([2]; Tm 0.3 ug/ml + compound 2 uM) [%] | Mean fluorescence ([2]; Tm 0.3 ug/ml + compound 2 uM) | % fold induction to Control ([2]; compound 2 uM) [%] | Mean fluorescence ([2]; compound 2 uM) | effect of EDTA (chelation of magnesium) on RNase activity of Ire1KR32 stimulated by the substance (Ire1KR32; FIG. 3F) | increase of specific RNase activity by co-factor (Ire1KR32; HP21 substrate, Ire1KR, Ire1KR24, Ire1KR32 (FIG. 1D)) | % fold induction to Control ([2]; Tm alone) [%] | Mean fluorescence ([2]; Tm alone) | % splicing mRNA XBP-I Average ([1]; Tm alone) [%]
1 | CC(=O)Nc1ccc(Nc2nccc(Nc3cc(C4CCCCC4)n[nH]3)n2)cc1 [APY36] | 0.000897 | 16 | 10 | 19 |  |  |  |  |  |  |  |  |  |  |  | 
2 | N#CCc1ccc(Nc2nc(Nc3cc(C4CCC4)n[nH]3)c3ccccc3n2)cc1 [APY82] | 0.002172 | 27 | 29 | 27 | significant in vivo activation |  |  |  |  |  |  |  |  |  |  | 
3 | N#CCc1ccc(Nc2nc(Nc3cc(C4CCCCC4)n[nH]3)c3ccccc3n2)cc1 [APY79] | 0.000626 |  |  |  |  |  |  |  |  |  |  |  |  |  |  | 
4 | N#CCc1ccc(Nc2nc(Nc3cc(C4CC4)n[nH]3)c3ccccc3n2)cc1 [APY65] | 0.005304 | 29 | 22 | 51 | significant in vivo activation | significant activation |  |  |  |  |  |  |  |  |  | 
5 | Cc1cc(Nc2cc(C3CCCC3)n[nH]2)nc(Nc2ccc(CC#N)cc2)n1 [APY80] | 0.001022 | 9 | 12 | 28 |  |  | significant inhibition |  |  |  |  |  |  |  |  | 
6 | CC(=O)Nc1ccc(Nc2nccc(Nc3cc(C4CCCC4)n[nH]3)n2)cc1 [APY75] | 0.00175 | 44 | 9 | 17 |  |  |  |  |  |  |  |  |  |  |  | 
7 | N#CCc1ccc(Nc2nccc(Nc3cc(C4CCCCC4)n[nH]3)n2)cc1 [APY34] | 0.0014 | 7 | 12 | 34 |  |  |  | 78 | 4318 | 17 | 2836 |  |  |  |  | 
8 | Nc1ncnc2c1ncn2[C@@H]1O[C@H](COP(=O)(O)OP(=O)(O)O)[C@@H](O)[C@H]1O [ADP, reference compound] |  |  |  |  |  |  |  |  |  |  |  | decreased by greater than an order of magnitude | two orders of magnitude |  |  | 
9 | Cc1cc(Nc2cc(C3CCC3)n[nH]2)nc(Nc2ccc(CC#N)cc2)n1 [APY83] | 0.02693 | 29 | 21 | 55 | significant in vivo activation | significant activation |  |  |  |  |  |  |  |  |  | 
10 | N#CCc1ccc(Nc2nccc(Nc3cc(C4CCC4)n[nH]3)n2)cc1 [APY77] | 0.006479 | 37 | 21 | 37 |  | significant activation |  | 9 | 2648 | 6 | 2570 |  |  |  |  | 
11 | N#CCc1ccc(Nc2nc(Nc3cc(C4CCCC4)n[nH]3)c3ccccc3n2)cc1 [APY78] | 0.002028 | 11 | 11 | 27 |  |  |  |  |  |  |  |  |  |  |  | 
12 | N#CCc1ccc(Nc2nccc(Nc3cc(-c4cccs4)n[nH]3)n2)cc1 [APY84] | 0.004672 | 12 | 21 | 60 | significant in vivo activation |  | significant inhibition |  |  |  |  |  |  |  |  | 
13 | tunicamycin [Tm, reference compound] |  |  |  |  |  |  |  |  |  |  |  |  |  | 59 | 3869 | 78
14 | N#CCc1ccc(Nc2nccc(Nc3cc(C4CCCC4)n[nH]3)n2)cc1 [APY67] | 0.006034 | 21 | 20 | 66 |  | significant activation |  | −6 | 2289 | −4 | 2326 |  |  |  |  | 
15 | OCCc1ccc(Nc2nccc(Nc3cc(C4CCCCC4)n[nH]3)n2)cc1 [APY33] | 0.00232 | 8 | 8 | 18 |  |  | significant inhibition | 49 | 3613 | 16 | 2811 |  |  |  |  | 
16 | Cc1ccc(-c2cc(Nc3nc(Nc4ccc(CC#N)cc4)nc4ccccc34)[nH]n2)s1 [APY85] | 0.003287 | 13 | 15 | 14 |  | significant activation |  |  |  |  |  |  |  |  |  | 
17 | Cc1cc(Nc2cc(C3CC3)n[nH]2)nc(Nc2ccc(CC#N)cc2)n1 [APY69] | 0.06355 | 36 | 23 | 40 | significant in vivo activation | significant activation |  | 16 | 2805 | 18 | 2864 |  |  |  |  | 
18 | OCCc1ccc(Nc2nccc(Nc3cc(C4CCCC4)n[nH]3)n2)cc1 [APY76] | 0.03994 | 11 | 23 | 39 | significant in vivo activation | significant activation |  |  |  |  |  |  |  |  |  | 
